These results are taken from patent publication US11730819B2, “Peptide derivatives having novel linkage structures” (priority 2016, dated 2023).

Data set [1] has as its target T1, MT1-MMP hemopexin domain (Homo sapiens, UniProt P50281).
T1 construct: residues Cys319-Gly511 from the human gene; His6 (N); made in house; host or cells: HEK293 cells (transient, pEXPR-IBA42 vector)
As to the kind of experiment: Fluorescence polarisation competition binding assay. Particulars: human MT1-MMP. From the text:
The MT1-MMP hemopexin-like repeats (also known as the MT1-MMP hemopexin domain), residues Cys319-Gly511 from the human gene, were transiently expressed in HEK293 cells as secreted N-terminally His6-tagged soluble protein, using the pEXPR-IBA42 (IBA) expression vector. Following expression, the protein was purified by Nickel-NTA affinity chromatography followed by gel filtration, and purity was checked by SDS-PAGE. Batch to batch variability was also monitored by fluorescence thermal shift experiments in the presence/absence of a hemopexin domain binding bicycle.
(§1) Binding affinity was measured using competition assays using Fluorescence Polarisation (anisotropy).
Fluoresceination may be performed on the N-terminal amino group of the peptide, which is separated from the bicycle core sequence by a sarcosine spacer (usually Sar5). This can be done during Fmoc solid phase synthesis or post-synthetically (after cyclisation with TBMB and purification) if the N-terminal amino group is unique to the peptide. Fluoresceination can also be performed on the C-terminus, usually on a Lysine introduced as the first C-terminal residue, which is then separated from the bicycle core sequence by a sarcosine spacer (usually Sar6). Thus, N-terminal tracers can have a molecular format described as Fluo-Gly-Sar5-A(BicycleCoreSequence), and (BicycleCoreSequence)-A-Sar6-K(Fluo) for a C-terminally fluoresceinated construct. Fluorescent tracers used in the Examples are A-(17-69)-A-Sar6-K(Fluo), A-(17-69-07)-A-Sar6-K(Fluo), and A-(17-69-12)-A-Sar6-K(Fluo).
(§2) Here, a pre-formed complex of PEX with the fluorescent PEX-binding tracer is titrated with free, non-fluoresceinated bicyclic peptide. Since all 17-69-based peptides are expected to bind at the same site, the titrant will displace the fluorescent tracer from PEX. Dissociation of the complex can be measured quantitatively, and the Kd of the competitor (titrant) to the target protein determined. The advantage of the competition method is that the affinities of non-fluoresceinated bicyclic peptides can be determined accurately and rapidly.
(§3) Subsequently, the non-fluorescent competitor bicyclic peptide (usually just the bicycle core sequence) is titrated, such that it displaces the fluorescent tracer from the target protein. The displacement of the tracer is measured and associated with a drop in fluorescence polarisation. The drop in fluorescence polarisation is proportional to the fraction of target protein bound with the non-fluorescent titrant, and thus is a measure of the affinity of titrant to target protein.
The raw data is fit to the analytical solution of the cubic equation that describes the equilibria between fluorescent tracer, titrant, and binding protein. The fit requires the value of the affinity of fluorescent tracer to the target protein, which can be determined separately by direct binding FP experiments (see previous section).

Data set [2] addresses MT1-MMP (Homo sapiens, UniProt P50281). Nature of the data set: SPR binding. Particulars: read-out: Binding Affinity Kd (SPR). For orientation: SPR reads the build-up and loss of mass on a sensor chip optically.
For data set [3], the target named is rat/mouse MT1-MMP (Mus musculus, UniProt P53690). Nature of the data set: Binding affinity to rat/mouse MT1-MMP, measured as previously described. To be noted: Binding Affinity (Ki in nM) rat/mouse ki, bicycle peptide-drug conjugates, two values given. As for the experimental part: as §1, §2, §3
The raw data is fit to the analytical solution of the cubic equation that describes the equilibria between fluorescent tracer, titrant, and binding protein. The fit requires the value of the affinity of fluorescent tracer to the target protein, which can be determined separately by direct binding FP experiments (see previous section). The curve fitting was performed using Sigmaplot 12.0 and used an adapted version of the equation described by Zhi-Xin Wang (FEBS Letters 360 (1995) 111-114).
The in vitro binding affinities of the bicycle peptide-drug conjugates prepared above were measured for MT1-MMP as previously described herein.

For data set [4], the system named is HT1080 tumor cells. Nature of the data set: In vivo efficacy against HT1080 tumors in BALB/c nude mice. To be noted: biw dosing, BALB/c nude mice with HT1080 tumors. The procedure: HT1080 tumor cells were maintained in vitro as a monolayer culture in EMEM medium supplemented with 10% heat inactivated fetal bovine serum at 37 C in an atmosphere of 5% CO2 and air. The tumor cells were routinely subcultured twice weekly by trypsin-EDTA treatment. The cells growing in an exponential growth phase were harvested and counted for tumor inoculation.
BALB/c nude mice were inoculated subcutaneously at the right flank with HT1080 tumor cells […] in 0.2 ml of PBS for tumor development. 39 animals were randomized when the average tumor volume reached […].
The BDC compounds were formulated at 0.03 mg/ml in a vehicle buffer containing 25 mM histidine and 10% Sucrose. The formulations were administered twice weekly (biw) at 0.3, 1, 3 and 10 mg/kg. Tumor volume and body weight were measured up to 14 days from the first dosing.

Molecules are shown by their SMILES. Where “and” joins values, the source holds several entries; their conditions need not be identical. Identical values can stand only once. Like-named read-outs stand apart in the source and are kept apart here.

Usually Ki stands for the equilibrium dissociation constant of an inhibitor or competing ligand from its target. A word on the Kd: it is the free concentration of one partner at which half of the binding sites on the other are occupied at equilibrium, for simple one-to-one binding. As for `C#CCCC(=O)NCCC(=O)N(C)CC(=O)N(C)CC(=O)N(C)CC(=O)N(C)CC(=O)N(C)CC(=O)N(C)CC(=O)N(C)CC(=O)N(C)CC(=O)N(C)CC(=O)N(C)CC(=O)N[C@@H](C)C(=O)N[C@H]1CN(C)Cc2cc3cc(c2)CN(C)C[C@@H](C(N)=O)NC(=O)[C@H](C(C)(C)C)NC(=O)[C@H](CC(=O)O)NC(=O)[C@H](Cc2ccc(O)cc2)NC(=O)[C@H](Cc2ccccc2)NC(=O)[C@H](CC(=O)O)NC(=O)[C@H](CCC(=O)O)NC(=O)[C@H](CSC3)NC(=O)[C@@H](C)NC(=O)[C@H](Cc2cccc3ccccc23)NC(=O)[C@H](CCC(=O)O)NC(=O)[C@H](CC(N)=O)NC(=O)[C@@H](C)NC1=O` [17-69-07-N450, (PYA)-(B-Ala)-Sar10-A(Dap(Me))(D-Ala)NE(1Nal)(D-Ala)CEDFYD(tBuGly)(Dap(Me))], the Ki in data set [1] (bicycle peptides, read-out: Binding Affinity Ki (h)) is 3.7 nM. The Kd in data set [2] was 1.91 nM.

`CC[C@H](C)[C@@H]([C@@H](CC(=O)N1CCC[C@H]1[C@H](OC)[C@@H](C)C(=O)N[C@H](C)[C@@H](O)c1ccccc1)OC)N(C)C(=O)[C@@H](NC(=O)[C@H](C(C)C)N(C)C(=O)OCc1ccc(NC(=O)[C@H](CCCNC(N)=O)NC(=O)[C@@H](NC(=O)Cn2cc(CCC(=O)N[C@@H](C)C(=O)N[C@H]3CNCc4cc5cc(c4)CSC[C@H](NC(=O)[C@@H](C)NC(=O)[C@H](Cc4cccc6ccccc46)NC(=O)[C@H](CCC(=O)O)NC(=O)[C@H](CC(N)=O)NC(=O)[C@@H](C)NC3=O)C(=O)N[C@@H](CCC(=O)O)C(=O)N[C@@H](CC(=O)O)C(=O)N[C@@H](Cc3ccccc3)C(=O)N[C@@H](Cc3ccc(O)cc3)C(=O)N[C@@H](CC(=O)O)C(=O)N[C@@H](C(C)(C)C)C(=O)N[C@H](C(N)=O)CNC5)nn2)C(C)C)cc1)C(C)C` [BT17BDC-59]: the Ki in data set [3] is 1.8 nM and 1.7 nM; in data set [1] (Binding Affinity (Ki in nM) Human ki, bicycle peptide-drug conjugates, two values given) it was 2.8 nM and 2.7 nM. Moreover, in data set [4], the tolerated dose entry is given as “up to 3 mg/kg”.
